Measurements taken from paper PMC6036174 (Frontiers in Microbiology, 2018).
“And” between values parts separate entries of the source, which are not always exact repeats. Equal entries are not always repeated. Where two headings read alike, the source gives them in different places.

Key:
[1] = tested on: M. tuberculosis CDC1551; test: broth tube MIC (visible pellet) against M. tuberculosis CDC1551; assay type: cell-based, Mycobacterium tuberculosis; conditions: Mycobacterium tuberculosis, 336 h; M. tuberculosis CDC1551; 14 days 37°C; no visible pellet; read-out: MIC100
[2] = VERO cell cytotoxicity (resazurin); conditions: African green monkey, VERO (ATCC CCL-81) normal epithelial cells
[3] = tested on: M. smegmatis cells; set-up: method as in Wei et al., [2003]; conditions: ref Wei et al., [2003]; cited from earlier work
[4] = A549 cell cytotoxicity (MTT); conditions: human, A549 lung epithelial cells
[5] = tested on: M. tuberculosis H37Rv (ATCC 27294); test: resazurin microtiter assay, MIC against M. tuberculosis H37Rv; assay type: cell-based, Mycobacterium tuberculosis; conditions: Mycobacterium tuberculosis, 168 h, 7 days 37°C, 90% inhibition of growth, read-out: MIC90
[6] = set-up: method as in Poggi et al. ([2013]); conditions: descriptive; ref Poggi et al. ([2013]); cited from earlier work
[7] = tested on: M. tuberculosis H37Rv; conditions: cited from earlier work
[8] = tested on: G. mellonella larvae; test: in vivo toxicity in Galleria mellonella larvae; conditions: for % Mortality: 72 h post-injection
Method: G. mellonella larvae in the 6th developmental stage were used to determine the in vivo cytotoxicity of the test complexes (Kellett et al., [2011]; Desbois and Coote, [2012]; McCann et al., [2012]). Thirty healthy larvae, each weighing between 0.2 and 0.4 g and with no cuticle discolouration, were used for each experiment. Fresh solutions of the test complexes were prepared immediately prior to testing under sterile conditions. Test compounds (0.05 g) were dissolved in DMSO (1 mL) and added to sterile water (9 mL) to give a stock solution/suspension (5,000 μg/mL). Test solutions/suspensions were prepared from the corresponding stock solution using Millipore water only to dilute to the desired concentration and each compound was screened across the concentration range of 5,000–100 mg/L. Test solutions/suspensions (20 μL) were administered to the larvae by injection directly into the haemocoel through the last pro-leg. The base of the pro-leg can be opened by applying gentle pressure to the sides of the larvae and this aperture will re-seal after removal of the syringe without leaving a scar. Larvae were placed in sterile Petri dishes and incubated at 30°C for 72 h. The survival of the larvae was monitored every 24 h. Death was assessed by the lack of movement in response to stimulus together with discolouration of the cuticle. Three controls were employed in all assays. The first consisted of untouched larvae maintained at the same temperature as the test larvae. The second was larvae with the pro-leg pierced with an inoculation needle but no solution injected. The third control was larvae that were inoculated with 20 μL of sterile water.

[9] = tested on: MDR ATCC 49967; set-up: method as in Hoffman et al., [2013]; conditions: ref Hoffman et al., [2013]; cited from earlier work
[10] = tested on: M. tuberculosis; set-up: method as in Oliveira et al., [2004]; conditions: based on Na3[Fe(CN)5(INH)]·4H2O; ref Oliveira et al., [2004]; cited from earlier work
[11] = tested on: mammalian cancer cells; set-up: method as in Oliveira et al., [2004]; conditions: ref Oliveira et al., [2004], read-out: IC50 cytotoxicity; cited from earlier work
[12] = M. tuberculosis H37Rv, ref Poggi et al. ([2013])
[13] = H37Rv, ref Segura et al. ([2014])

Q: What does the source list for `NNC(=O)c1ccncc1` [INH, Isoniazid, reference compound]?
A: MIC [1]: 0.44 µM and 0.06 µg/mL; IC50 at 24 h [2]: 333 µg/mL and 2.43 mM; MIC [3]: > 30 mg/mL and > 218.76 mM; IC50 at 48 h [4]: 319 µg/mL and 2.33 mM; MIC90 [5]: 0.44 µM and 0.06 µg/mL

Q: With `NNC(=O)c1ccncc1.O.O.O.O=S(=O)([O-])[O-].[Cu+2]` [[Cu(INH)(H2O)]SO4·2H2O] as the molecule, how does the solubility in water [6] read?
A: only very sparingly soluble in water

Q: What about the MIC [7, 12] of the same molecule?
A: 2.2 µM

Q: Which MIC [7, 13] does the source give for `NC(N)=S.NC(N)=S.O=S(=O)([O-])C(F)(F)F.O=S(=O)([O-])C(F)(F)F.[Ag+].[Ag+].c1cnc2c(c1)ccc1cccnc12.c1cnc2c(c1)ccc1cccnc12` [[{Ag(phen)(μ-tu)}2]X2 (X = CF3 SO3-), [{Ag(phen)(μ-tu)}2]X2] here?
A: 14.2 µM

Q: Which MIC [7, 13] does the source give for `NC(N)=S.NC(N)=S.O=[N+]([O-])[O-].O=[N+]([O-])[O-].[Ag+].[Ag+].c1cnc2c(c1)ccc1cccnc12.c1cnc2c(c1)ccc1cccnc12` [[{Ag(phen)(μ-tu)}2]X2 (X = NO3-), [{Ag(phen)(μ-tu)}2]X2] here?
A: 11.0 µM

Q: What does the source list for `c1cnc2c(c1)ccc1cccnc12` [phen, 1,10-phenanthroline, reference compound]?
A: MIC [1]: 3 µg/mL and 16.6 µM; % Mortality ([8]; 10 μg per larvae (33.33 mg/kg)): 0%; % Mortality ([8]; 20 μg per larvae (66.67 mg/kg)): 80%; % Mortality ([8]; 40 μg per larvae (133.33 mg/kg)): 80%; % Mortality ([8]; 100 μg per larvae (333.33 mg/kg)): 100%; larvae survived ([8]; highest administered concentration 0.1 mg (333 mg/kg) per larvae): all of the larvae injected at this concentration with phen died; In vivo G. mellonella tolerance order in μmol ([8]; rank, 1st = best tolerated, from Table 2): 5th; In vivo G. mellonella tolerance order in μmol (Normalized against no. of phens) ([8]; rank, normalized with respect to phen content): 4th; IC50 at 24 h [2]: > 10 µg/mL and > 55.5 µM; IC50 at 48 h [4]: 4.3 µg/mL and 23.9 µM; MIC90 [5]: 11.2 µg/mL and 61.9 µM

Q: With `O=P([O-])([O-])OP(=O)([O-])[O-].[Co+2].[Co+2].c1cnc2c(c1)ccc1cccnc12.c1cnc2c(c1)ccc1cccnc12.c1cnc2c(c1)ccc1cccnc12.c1cnc2c(c1)ccc1cccnc12` [{[Co(phen)2]2(μ-P2O7)}] as the molecule, how does the MIC [9] read?
A: 2.41 µM

Q: With `O=P([O-])([O-])OP(=O)([O-])[O-].[Cu+2].[Cu+2].c1cnc2c(c1)ccc1cccnc12.c1cnc2c(c1)ccc1cccnc12` [{[Cu(phen)]2(μ-P2O7)}] as the molecule, how does the MIC [9] read?
A: 2.80 µM

Q: With [CoCl(INH)2(H2O)]Cl·2.5H2O as the molecule, how does the solubility in water [6] read?
A: only very sparingly soluble in water

Q: What about the MIC [7, 12] of the same molecule?
A: 0.41 µM

Q: Which MIC [10] does the source give for [Fe(CN)5(INH)]^3− here?
A: 0.43 µM

Q: And the IC50 [11]?
A: > 54 µM
